Reference: patent US4886826A, “Substituted 2,3,4,9-tetrahydro-1H-carbazole-1-acetic acid derivatives, composition and use” (American Home Products Corporation, priority 1989, dated 1989)
Where two headings read alike, the source gives them in different places.

Assays:
lipoxygenase = test: Rat Polymorphonuclear Leukocyte Assay, lipoxygenase products (leukotriene B4, 5-HETE); format: cell-based; conditions: 10 min, 10 μM drug concentration, minus=decrease, plus=increase relative to control (no drug), A23187-stimulated, 3H arachidonic acid
Procedure: (§1) A test for lipoxygenase and cyclooxygenase inhibitory activity is the Rat Polymorphonuclear Leukocyte Assay. The assay is carried out as follows: glycogen-elicited rat peritoneal cells (10^7 /1.0 mL) are incubated (37° C.)±drug in a shaking water bath for 10 minutes. One micromolar (final concentration) ^3 H arachidonic acid (2.0 μCi) is then added to each sample followed by the immediate addition of 1.0 micromolar A23187* (final concentration). The cells are incubated another 10 minutes and the reaction is stopped by high-speed centrifugation. Supernatants are then analyzed by HPLC using an in-line radioactivity detector. […] Results are qualitatively expressed as a percent change (minus=decrease, plus=increase) relative to the control (no drug). [drawing 20]

[1] = system: Phenylbenzoquinone-induced writhing in mice; test: Phenylbenzoquinone-induced Writhing in Mice (analgesic activity); format: in vivo, Male Swiss albino mice; conditions: 10 mg/kg, p.o.; mouse; writhes in 15 minutes, PBQ i.p. 60 minutes after dosing
Procedure: A further test used to determine the utility of the compounds of the present invention is designated: Drug Effects on Phenylbenzoquinone-induced Writhing in Mice.
The objective of this test is to determine the ability of test drugs to inhibit the nociceptive (pain) response of mice injected with a chemical irritant. This test is a primary screen for both peripherally and centrally acting analgesic drugs.
Male Swiss albino mice (15-25 g) are used. The animals are fasted for 18 hours prior to use but have free access to water.
Drugs are dissolved or suspended according to their solubility in 0.5% Tween 80 in distilled water. They are administered by gastric gavage in a volume of 5 mL/kg. For primary screening all drugs are administered at the arbitrary dosage of 10 mg/kg, p.o. to a group of 10 mice.
A modification of the method of Siegmund et al., Proc. Soc. Exp. Biol. Med., 95, 729-731 (1957) is used. Groups of 5 mice are dosed with the test compound or vehicle control. Sixty minutes later the animals are injected i.p. with 0.3 mL/20 g body weight of a 0.02% solution of phenylbenzoquinone (PBQ; 2-phenyl-1,4-benzoquinone) and placed in individual observation boxes. The number of writhes or abdominal squirming movements made by each mouse during the following 15 minute period is counted. The experiment is repeated with another group of 5 mice and the mean number of writhes per mouse for a group of 10 mice is calculated.
Drug-treated and vehicle-treated control groups are compared and the percentage protection conferred by the drug is calculated: [formula] where c=mean number of writhes in the control group where t=mean number of writhes in the test drug group

cyclooxygenase = test: Rat Polymorphonuclear Leukocyte Assay, cyclooxygenase products (thromboxane B2, prostaglandin E2); format: cell-based; conditions: 10 min, 10 μM drug concentration, minus=decrease, plus=increase relative to control (no drug), A23187-stimulated, 3H arachidonic acid
Procedure: as §1

[2] = system: Freund's complete adjuvant-induced hind paw edema in rats; test: Preventative Adjuvant Edema (Freund's complete adjuvant hind paw edema, acute anti-inflammatory effect); format: in vivo, Male Sprague Dawley rats; conditions: 25 mg/kg, p.o.; rat; edema volume day 0 to day 3
Procedure: This test is a primary screen for anti-inflammatory drugs.
Male Sprague Dawley rats (180-200 g) are used. The animals have free access to water but food is withdrawn 18 hours before testing.
Freund's complete adjuvant is prepared by suspending 5 mg of killed and dried Mycobacterium butyricum (Difco) in 1 mL liquid paraffin. The test compounds are dissolved in distilled water or suspended in 0.5% Tween 80 in distilled water according to their solubility. For primary screening all drugs are administered by gastric gavage at the arbitrary dosage of 25 mg/kg, p.o. in a volume of 0.5 mL/100 g body weight to groups of 10 animals.
The method is essentially that described by Wax et al, J. Pharmacol. Exp. Ther., 192, 166-171 (1975). Groups of rats are injected intradermally in the left hind paw with 0.1 mL of Freund's complete adjuvant. The test compound or vehicle is administered immediately before the adjuvant, 24 hours and 48 hours after the adjuvant (days 0, 1 and 2). The injected hind paw volume is measured before the injection of adjuvant and 24 hours after the last drug administration (day 3) by means of a plethysomometer (Buxco Electronics Inc.). The difference between the hind paw volume on day 0 and day 3 represents the edema volume. Etodolac (25 mg/kg, p.o.) is included as a positive control.
The mean edema volume (expressed as mL±SEM) is calculated for each group and the percentage inhibition of inflammation conferred by the drug is calculated: [formula] where c is the mean edema volume for the untreated controls and t is the mean edema volume for the drug treated group.

[3] = read-out: % change 5-HETE (5-hydroxyeicosatetraenoic acid)
[4] = read-out: % change leukotriene B4
[5] = read-out: % change prostaglandin E2
[6] = read-out: % change thromboxane B2

SMILES	inhibition at 10 µM (lipoxygenase; [3]) [%]	inhibition at 10 µM (lipoxygenase; [4]) [%]	% Inhibition [1] [%]	inhibition at 10 µM (cyclooxygenase; [5]) [%]	inhibition at 10 µM (cyclooxygenase; [6]) [%]	% Inhibition [2] [%]
C=CC/C=C\C[C@H]1CC[C@@](CC)(CC(=O)O)c2[nH]c3c(C)cccc3c21 (relative stereo) [Example 4, [1, 4 (Z)]-1-Ethyl-4-(2,5-hexadienyl)-2,3,4,9-tetrahydro-8-methyl-1H-carbazole-1-acetic Acid]	94	94	23	19	88	43
C=CCCCCC1CCC(CC)(CC(=O)O)c2[nH]c3c(CC)cccc3c21 (single isomer, unassigned) [Example 1, 1,8-Diethyl-4(5-hexenyl)-2,3,4,9-tetrahydro-1H-carbazole-1-acetic Acid]	92	93	0	31	82	0
C=CCCCCC1CCC(CC)(CC(=O)O)c2[nH]c3c(C)cccc3c21 (single isomer, unassigned; isomer a) [Example 3, 1-Ethyl-4-(5-hexenyl)-2,3,4,9-tetrahydro-8-methyl-1H-carbazole-1-acetic Acid (Isomer A)]	–	–	10	–	–	19
C=CCCCCC1CCC(CC)(CC(=O)O)c2[nH]c3c(C)cccc3c21 (single isomer, unassigned; isomer b) [Example 2, 1-Ethyl-4-(5-hexenyl)-2,3,4,9-tetrahydro-8-methyl-1H-carbazole-1-acetic Acid (Isomer B)]	92	95	0	-22	80	28
